Article PMC12488667, “Orodispersible films containing chestnut shell phenolics for buccal delivery: a preclinical approach for oral mucositis prevention” (Frontiers in Medical Technology, 2025)
Where “and” joins values, the source holds several entries; their conditions need not be identical. Equal values may be shown once. Read-outs that look alike come from different tables or passages of the source. Marks after values point to notes of the source that are not given here. Each block holds one compound with its values, some of them ahead of it.

Legend:
[1] = Ex vivo permeation, Franz cells; format: in vitro ADME, porcine
Procedure: Porcine buccal mucosa was used to evaluate the buccal permeation of the phenolic compounds in the extract and the CS-loaded OFs (n = 9). The porcine buccal mucosa was purchased in a local butcher shop, not requiring ethical approval. A Franz cell assembly (9 mm clear jacketed Franz cell with a flat ground joint, 5 ml receptor volume, and permeation area of 0.785 cm^2; PermeGear, Inc., USA) was used. This experiment followed the methodology described by Rodrigues et al. ([32]). In the Franz apparatus, the porcine buccal mucosa was positioned with the cheek side facing the donor chamber, which contained 500 µl (1,000 μg/ml) of the CS extract or the CS-loaded OFs (two square films (2 × 2 cm) with […] of thickness were dissolved in 4 ml of artificial saliva; donor concentration was normalized to ensure equivalence between the extract solution and the film formulation). The receptor chamber was filled with 5 ml PBS, maintained at 37°C, and stirred continuously at 150 rpm. The volume was maintained through the experiments.
(§1) The identification and quantification of the phenolic compounds present in the extract and the OFs, as well as the compounds that permeated from the OFs through in vitro and ex vivo assays, were conducted using an LC-ESI-LTQ-Orbitrap-HRMS equipment with an Accela chromatograph (Thermo Scientific, Hemel Hempstead, UK), a photodiode array detector, a quaternary pump, and a temperature-controlled autosampler coupled to a high-resolution LTQ Orbitrap Velos mass spectrometer (Thermo Scientific, Hemel Hempstead, UK) with an ESI source in negative mode ([33], [34]). The system was controlled using the Xcalibur v3.0 software (ThermoFisher Scientific, Hemel Hempstead, UK). Elution was performed on an Acquity™ UPLC® BEH C18 Column (2.1 × 100 mm, i.d., 1.7 µm particle size, Waters Corporation, Wexford, Ireland) maintained at 30°C.
(§2) Gradient elution was performed with water (A) and acetonitrile (B), both with 0.1% formic acid, with a flow rate and injection volume of 450 µl/min and 5 µl, respectively. The solvent gradient (v/v) of B [t (min), %B] was set as follows: (0, 0), (2, 0), (4, 30), (8, 100), (10, 100), (11, 0), and (14, 0). The samples were analyzed in the full scan mode at a resolving power of 30,000 and m/z 600. Data-dependent MS/MS events were acquired at a resolution of 15,000. Most intense ions were detected via the FTMS mode-triggered data-dependent acquisition mode. Ions that were not sufficiently intense for a data-dependent scan were explored in MSn mode. Precursors were fragmented by collision-induced dissociation using a C-trap with a normalized collision energy (35 V) and an activation time of 10 ms. […] Compounds whose theoretical [M–H]^− values exceeded the MS¹ acquisition range (m/z 100–600) were annotated based on characteristic MSⁿ fragment ions detected within the scan window.
Quantitative analysis was performed by using a validated chromatographic method ([38]).

TR146 cells = assay: In vitro permeation, buccal model; format: in vitro ADME, human
Procedure: The in vitro permeability of the bioactive compounds present in OFs (n = 9) was determined using a co-culture model composed of TR146 ([31]). The extract and the CS-loaded OFs were added to the apical side of the model as a stock solution. […] The Transepithelial Electrical Resistance (TEER) of the model was evaluated before, during, and at the end of the permeability assay using an EVOM Epithelial Volthometer equipped with a chopstick electrode (World Precision Instruments, Sarasota, FL, USA).
as §1, §2

- Quantification of permeated compounds ([1]; CS extract): 1.93± 0.06^a mg/ml
- Quantification of permeated compounds ([1]; CS-loaded OFs): 0.87 ± 0.06^a mg/g film
- Permeation (%) ([1]; from CS extract, 15 min): 18.69 ± 0.04^a %
- Permeation (%) ([1]; from CS extract, 30 min): 17.60 ± 0.30^a %
Structure (SMILES): O=C(CCc1ccc(O)cc1)c1c(O)cc(O)cc1O[C@@H]1O[C@H](CO)[C@@H](O)[C@H](O)[C@H]1O [Phlorizin]

- Quantification of permeated compounds ([1]; CS extract): 26.17 ± 2.25^a mg/ml
- Quantification of permeated compounds ([1]; CS-loaded OFs): 30.41 ± 0.01^a mg/g film
- Permeation (%) ([1]; from CS extract, 15 min): 65.10 ± 1.87^a %
- Permeation (%) ([1]; from CS extract, 30 min): 67.06 ± 2.58^a %
- Permeation (%) ([1]; from CS-loaded OFs, 15 min): 76.61 ± 4.85^a %
Structure (SMILES): O=C(O)CCCCCC(=O)O [Pimelic acid]

- Quantification of permeated compounds (TR146 cells; CS extract): 41.32 ± 2.63^b mg/ml
- Quantification of permeated compounds (TR146 cells; CS-loaded OFs): 28.93 ± 1.88^a mg/g film
- Permeation (%) (TR146 cells; from CS extract, 15 min): 13.92 ± 0.12^a %
- Permeation (%) (TR146 cells; from CS extract, 30 min): 15.39 ± 1.05^a %
- Permeation (%) (TR146 cells; from CS extract, 45 min): 18.22 ± 1.41^b %
- Permeation (%) (TR146 cells; from CS extract, 60 min): 23.34 ± 0.88^b %
- Permeation (%) (TR146 cells; from CS extract, 90 min): 22.87 ± 1.52^b %
- Permeation (%) (TR146 cells; from CS extract, 120 min): 23.68 ± 1.84^b %
- Permeation (%) (TR146 cells; from CS extract, 180 min): 21.35 ± 0.97^b %
- Permeation (%) (TR146 cells; from CS extract, 240 min): 28.47 ± 2.52^b %
- Permeation (%) (TR146 cells; from CS-loaded OFs, 15 min): 17.03 ± 0.23^a %
- Permeation (%) (TR146 cells; from CS-loaded OFs, 30 min): 39.63 ± 0.24^a^,^b %
- Permeation (%) (TR146 cells; from CS-loaded OFs, 45 min): 43.32 ± 1.12^a^,^b %
- Permeation (%) (TR146 cells; from CS-loaded OFs, 60 min): 46.32 ± 2.65^a^,^b %
- Permeation (%) (TR146 cells; from CS-loaded OFs, 90 min): 65.40 ± 0.82^b %
- Permeation (%) (TR146 cells; from CS-loaded OFs, 120 min): 66.95 ± 3.71^b %
- Permeation (%) (TR146 cells; from CS-loaded OFs, 180 min): 103.24 ± 2.71^c %
- Permeation (%) (TR146 cells; from CS-loaded OFs, 240 min): 111.34% and 111.34 ± 1.62^c %
Structure (SMILES): O=C1CC[C@@H](C(=O)O)N1 [Pyroglutamic acid]

Structure (SMILES): O=c1c(O[C@@H]2O[C@H](CO)[C@H](O)[C@H](O)[C@H]2O)c(-c2ccc(O)c(O)c2)oc2cc(O)cc(O)c12 [Quercetin 3-O-galactoside]
- Quantification of permeated compounds (TR146 cells; CS extract): 0.36 ± 0.01^a mg/ml
- Quantification of permeated compounds (TR146 cells; CS-loaded OFs): 0.36 ± 0.01^a mg/g film
- Permeation (%) (TR146 cells; from CS extract, 60 min): 49.94 ± 0.98^a %

- Quantification of permeated compounds ([1]; CS extract): 1.02 ± 0.02^b mg/ml
- Quantification of permeated compounds ([1]; CS-loaded OFs): 0.39 ± 0.01^a mg/g film
- Permeation (%) ([1]; from CS extract, 15 min): 29.36 ± 1.68^a %
- Permeation (%) ([1]; from CS extract, 30 min): 28.33 ± 1.16^a %
- Permeation (%) ([1]; from CS-loaded OFs, 15 min): 70.71 ± 1.52^b %
- Permeation (%) ([1]; from CS-loaded OFs, 30 min): 74.31 ± 1.78^b %
Structure (SMILES): O=C(O)[C@]1(O)C[C@@H](O)[C@@H](O)[C@H](O)C1 [Quinic acid]

- Permeation (%) (TR146 cells): 22.32 ± 0.12^a %
Structure (SMILES): COc1cc(C[C@@H](CO)[C@H](CO)Cc2ccc(O)c(OC)c2)ccc1O [Secoisolariciresinol]

- Quantification of permeated compounds ([1]; CS extract): 23.93 ± 1.12^a mg/ml
- Quantification of permeated compounds ([1]; CS-loaded OFs): 23.67 ± 5.00^a mg/g film
- Permeation (%) ([1]; from CS extract, 15 min): 85.64 ± 4.12^a %
- Permeation (%) ([1]; from CS extract, 30 min): 86.86 ± 3.52^a %
Structure (SMILES): O=C(O)CCCCCCCCCC(=O)O [Undecanedioic acid]

- Quantification of permeated compounds (TR146 cells; CS extract): 0.70 ± 0.02^a mg/ml
- Quantification of permeated compounds (TR146 cells; CS-loaded OFs): 0.44 ± 0.05^a mg/g film
- Permeation (%) (TR146 cells; from CS extract, 15 min): 8.10 ± 0.02^a %
- Permeation (%) (TR146 cells; from CS extract, 30 min): 23.12 ± 0.56^b %
- Permeation (%) (TR146 cells; from CS extract, 45 min): 28.35 ± 0.83^b %
- Permeation (%) (TR146 cells; from CS extract, 60 min): 28.43 ± 0.41^b %
- Permeation (%) (TR146 cells; from CS extract, 90 min): 42.18 ± 1.08^c %
- Permeation (%) (TR146 cells; from CS extract, 120 min): 27.71 ± 0.72^a %
- Permeation (%) (TR146 cells; from CS extract, 180 min): 53.91 ± 1.07^d %
- Permeation (%) (TR146 cells; from CS extract, 240 min): 52.90 ± 0.73^d %
Structure (SMILES): COc1cc(C=O)ccc1O [Vanillin]

- Permeation (%) ([1]; pig, 15 min, 1000 μg/ml): 6.94 ± 0.02^a %
- Permeation (%) ([1]; pig, 30 min, 1000 μg/ml): 6.48 ± 0.02^a %
Structure (SMILES): O=c1[nH]c(=O)c2[nH]cnc2[nH]1 [Xanthine]
